In patent publication US20130303500A1, “COMPOUNDS AND METHODS FOR TREATING NEOPLASIA” (Medexis S.A., priority 2010, published 2013):

What was measured:
[1] = biological target: Na+/K+-ATPase (Adenosine 5′-Triphosphatase isolated from porcine cerebral cortex); assay: Na+/K+-ATPase inhibitory activity, colorimetric Adenosine 5′-Triphosphatase Enzymatic Assay (Sigma); assay type: biochemical; details: enzyme from porcine cerebral cortex, 0.5 units/ml
Experimental: The compound inhibitory effect on ATPase activity was assessed in vitro using the colorimetric Adenosine 5′-Triphosphatase Enzymatic Assay of Sigma (St. Louis, Mo.) according to the manufacturer's instructions. This assay utilizes Adenosine 5′-Triphosphatase isolated from porcine cerebral cortex. Each reaction was performed in a final volume of […] using 0.5 units/ml enzyme in the presence of the different inhibitors. […] IC50 values were determined using the Origin® program software (OriginLab, Northampton, Mass.).

[2] = tested on: CAKI (Renal) cells; assay: MTT cell proliferation/viability assay, CAKI; assay type: cell-based; details: 72 h
Experimental: Cell proliferation/viability was assessed by the MTT [3-(4,5-dimethylthiazol-2-yl)-2,5-diphenyltetrazolium bromide] assay, which is commercially available (Sigma, St. Louis, Mo.). Cells were cultured in 96-well plates for twenty-four hours (7-10.000 cells/well) and incubated with various concentrations of the different compounds—as indicated in the Figures—in serum-containing medium (or left untreated) for seventy-two hours. At the end of incubation, the medium was aspirated and MTT dissolved in RPMI 1640 w/o phenol red was added to each well to a final concentration of 0.25 mg/ml. After four hours incubation in the dark (37° C., 5% CO2) the supernatant was discarded. The converted dye (blue formazan crystals) was solubilized by adding 200 μl dimethylsulfoxide to each well. Absorbance was measured at 550 nm with reference at 655 nm using a spectrophotometer with the respective filters. All assays were performed in triplicate.
The effect of the different compounds on the proliferation and viability of two cancer cell lines (DU145/prostate and CAKI/renal) was tested through quantitative (4,5-dimethylthiazol-2-yl)-2,5-diphenyltetrazolium bromide (MTT) assays.

[3] = tested on: HCT116 (Colon) cells; assay: Sulforhodamine B (SRB) assay, HCT116; assay type: cell-based, human
Experimental: (§1) Sulforhodamine B (SRB) assays were performed according to standard National Cancer Institute Guidelines. Briefly, human tumor cells from different cancer panels were seeded into 96 well plates in […] (plating densities ranging from 5-40,000 cells/well depending on the doubling time of individual cell lines) in serum-containing media for twenty-four hours prior to the addition of the compounds to be assayed. After 24 hours, one plate of each cell line was fixed in situ with trichloroacetic acid (TCA). The fixed slides were used to determine the cell population for each cell line at the time of drug addition (Tz). Each compound to be tested was solubilized in dimethyl sulfoxide (DMSO) and the desired concentration was then added to the medium and diluted serially 1:10 to provide a total of five or ten drug concentrations plus control (in a final volume of 200 μL). The starting dose before any dilution was 100 uM for all compounds.
(§2) Following drug addition, each culture was incubated for forty-eight hours. The assay was terminated with the addition of cold TCA. The supernatant was discarded, and the plates were washed with tap water and air dried. SRB solution was then added to each well. After staining, the bound stain was solubilized and the absorbance was read on an automated plate reader at a wavelength of 515 nm.
(§3) Using the absorbance measurements [time zero, (Tz), control growth, (C), and test growth in the presence of drug at the ten concentration levels (Ti)], the percentage growth was calculated at each of the drug concentrations levels. Percentage growth inhibition was calculated as:
(§4) [(Ti−Tz)/(C−Tz)]×100 for concentrations for which Ti>/=Tz
(§5) [(Ti−Tz)/Tz]×100 for concentrations for which Ti<Tz.
(§6) Three dose response parameters were calculated for each experimental agent. Growth inhibition of 50% (GI50) was calculated from [(Ti−Tz)/(C−Tz)]×100=50, which was the drug concentration resulting in a 50% reduction in the net protein increase (as measured by SRB staining) in control cells during the drug. The drug concentration resulting in total growth inhibition (TGI) was calculated from Ti=Tz. The LC50 (concentration of drug resulting in a 50% reduction in the measured protein at the end of the drug treatment as compared to that at the beginning) indicating a net loss of cells following treatment was calculated from [(Ti−Tz)/Tz]×100=−50.
(§7) Values were calculated for each of these three parameters when the level of activity was reached; however, if the effect was not reached or was exceeded, the value for that parameter was expressed as greater or less than the maximum or minimum concentration tested.

[4] = tested on: SF268 (CNS) cells; assay: Sulforhodamine B (SRB) assay, SF268; assay type: cell-based; details: Homo sapiens
Experimental: as §1, §2, §3, §4, §5, §6, §7

[5] = tested on: H460 (Lung) cells; assay: Sulforhodamine B (SRB) assay, H460; assay type: cell-based, human
Experimental: as §1, §2, §3, §4, §5, §6, §7

[6] = tested on: MCF7 (Breast) cells; assay: Sulforhodamine B (SRB) assay, MCF7; assay type: cell-based, human
Experimental: as §1, §2, §3, §4, §5, §6, §7

[7] = tested on: NCI-ADR-RES (Ovarian) cells; assay: Sulforhodamine B (SRB) assay, NCI-ADR-RES (multidrug resistant); assay type: cell-based, human; details: 48 h
Experimental: as §1, §2, §3, §4, §5, §6, §7

[8] = tested on: PC3 (Prostate) cells; assay: Sulforhodamine B (SRB) assay, PC3; assay type: cell-based; details: Homo sapiens, Prostate cell, 48 h
Experimental: as §1, §2, §3, §4, §5, §6, §7

C[C@]12CCC(=NOC3CCNC3)CC1CCC1C2CC[C@]2(C)C(=O)C(F)CC12 (stereo partly drawn) [Compound 2, (5S,10S,13S,16R)-16a-fluoro-10,13-dimethyl-3-((S)-pyrrolidin-3-yloxyimino)-tetradecahydro-2H-cyclopenta[a]phenanthren-17(14H)-one]
IC50 [1]: 73 nM
IC50 [2]: 8750 nM
TGI ([3]; HCT116 Colon, SRB, 48 h): 156 nM
CC50 ([3]; Homo sapiens, HCT-116, 48 h, read-out: LC50): 998 nM
GI50 ([3]; Homo sapiens, HCT-116, HCT116 Colon, SRB, 48 h): 8 nM
CC50 ([4]; SF-268, 48 h, read-out: LC50): 112 nM
GI50 ([4]; SF-268, SF268 CNS, SRB, 48 h): 3 nM
IC (TGI) ([4]; SF-268, SF268 CNS, SRB, 48 h): 43 nM
TGI ([5]; H460 Lung, SRB, 48 h): 7 nM
CC50 ([5]; Homo sapiens, NCI-H460, 48 h, read-out: LC50): 54 nM
GI50 ([5]; Homo sapiens, NCI-H460, H460 Lung, SRB, 48 h): < 1 nM
CC50 ([6]; Homo sapiens, MCF7, 48 h, read-out: LC50): 9780 nM
GI50 ([6]; Homo sapiens, MCF7 Breast, SRB, 48 h): 21 nM
TGI ([6]; MCF7 Breast, SRB, 48 h): 478 nM
CC50 ([7]; Homo sapiens, NCI/ADR-RES, read-out: LC50): 598 nM
GI50 ([7]; Homo sapiens, NCI-ADR-RES Ovarian, SRB): 29 nM
TGI ([7]; NCI-ADR-RES Ovarian, SRB): 94 nM
CC50 ([8]; read-out: LC50): 962 nM
GI50 ([8]; PC3 Prostate, SRB): 46 nM
IC (TGI) ([8]; PC3 Prostate, SRB): 414 nM
